# Results reported in US20210254272A1, “TEXTILES HAVING ANTIMICROBIAL PROPERTIES” (Livinguard AG, priority 2015, published 2021).
# Experiment: Leaching test: 100 g fabric soaked in 10 liters stagnant distilled water, 3 days (72 hours)
# Format: physicochemical
# Settings: for Leaching of active ingredients: exhaust 80° C. 60 min, cured 180° C. 2 min, post wash
# Procedure: (§1) The test procedure for leaching was as follows: 100 g (grams) of fabric as well as control fabrics were soaked in 10 liters of stagnant distilled water in a closed wide mouth jar. After 3 days (72 hours), the water samples were tested for leached substances as per standard analytical methods.
# as §1, with “methods. A weight of 100 g fabric was chosen because in the preferred embodiment of the water filter as described further below, each filter comprises a strip of fabric with 210 g/m^2, 3 meters long and 0.16 meters wide, which corresponds to 100 g of fabric.” for “methods.”
smiles,measurement,setting,value
"CCCCCCCCCCCCCCCCCC[N+](C)(C)CCC[Si](OC)(OC)OC [Organosilane, dimethyloctadecyl[3-(trimethoxysilyl)propyl] ammonium chloride]",Leaching of active ingredients (in ppm),"0.2% each in mixture (o.w.f), exhaust 80° C., 60 min, curing 180° C., 2 min, unwashed",7 ppm
same,Leaching of active ingredients (in ppm),"0.5% each in mixture (o.w.f), exhaust 80° C., 60 min, curing 180° C., 2 min, unwashed",9 ppm
same,Leaching of active ingredients (in ppm),"1.0% each in mixture (o.w.f), exhaust 80° C., 60 min, curing 180° C., 2 min, unwashed",17 ppm
same,Leeching in ppm,"Exhaust + Wash + pad + Wash, exhaust 0.1% o.w.f. each in mixture, 1 gm/liter pad",0.1 ppm
same,Leeching in ppm,"Exhaust + Wash + pad + Wash, exhaust 0.1% o.w.f. each in mixture, 5 gm/liter pad",0.2 ppm
same,Leeching in ppm,"Exhaust + Wash + pad + Wash, exhaust 0.1% o.w.f. each in mixture, 10 gm/liter pad",0.4 ppm
same,Leeching in ppm,"Exhaust + Wash + pad + Wash, exhaust 0.25% o.w.f. each in mixture, 1 gm/liter pad",1 ppm
same,Leeching in ppm,"Exhaust + Wash + pad + Wash, exhaust 0.25% o.w.f. each in mixture, 5 gm/liter pad",2 ppm
same,Leeching in ppm,"Exhaust + Wash + pad + Wash, exhaust 0.25% o.w.f. each in mixture, 10 gm/liter pad",5 ppm
same,Leeching in ppm,"Exhaust + Wash + pad + Wash, exhaust 0.5 (% o.w.f) each in mixture, 1 gm/liter pad",3 ppm
same,Leeching in ppm,"Exhaust + Wash + pad + Wash, exhaust 0.5 (% o.w.f) each in mixture, 5 gm/liter pad",7 ppm
same,Leeching in ppm,"Exhaust + Wash + pad + Wash, exhaust 0.5 (% o.w.f) each in mixture, 10 gm/liter pad",9 ppm
same,Leeching in ppm,"Exhaust + Wash + pad + Wash, exhaust 1.0% o.w.f. each in mixture, 1 gm/liter pad",9 ppm
same,Leeching in ppm,"Exhaust + Wash + pad + Wash, exhaust 1.0% o.w.f. each in mixture, 5 gm/liter pad",10 ppm
same,Leeching in ppm,"Exhaust + Wash + pad + Wash, exhaust 1.0% o.w.f. each in mixture, 10 gm/liter pad",15 ppm
same,Leeching in ppm,"Exhaust + pad + Wash, exhaust 0.1% o.w.f. each in mixture, 1 gm/liter pad",143 ppm
same,Leeching in ppm,"Exhaust + pad + Wash, exhaust 0.1% o.w.f. each in mixture, 5 gm/liter pad",238 ppm
same,Leeching in ppm,"Exhaust + pad + Wash, exhaust 0.1% o.w.f. each in mixture, 10 gm/liter pad",249 ppm
same,Leeching in ppm,"Exhaust + pad + Wash, exhaust 0.25% o.w.f. each in mixture, 1 gm/liter pad",265 ppm
same,Leeching in ppm,"Exhaust + pad + Wash, exhaust 0.25% o.w.f. each in mixture, 5 gm/liter pad",249 ppm
same,Leeching in ppm,"Exhaust + pad + Wash, exhaust 0.25% o.w.f. each in mixture, 10 gm/liter pad",523 ppm
same,Leeching in ppm,"Exhaust + pad + Wash, exhaust 0.5 (% o.w.f) each in mixture, 1 gm/liter pad",432 ppm
same,Leeching in ppm,"Exhaust + pad + Wash, exhaust 0.5 (% o.w.f) each in mixture, 5 gm/liter pad",587 ppm
same,Leeching in ppm,"Exhaust + pad + Wash, exhaust 0.5 (% o.w.f) each in mixture, 10 gm/liter pad",637 ppm
same,Leeching in ppm,"Exhaust + pad + Wash, exhaust 1.0% o.w.f. each in mixture, 1 gm/liter pad",536 ppm
same,Leeching in ppm,"Exhaust + pad + Wash, exhaust 1.0% o.w.f. each in mixture, 5 gm/liter pad",657 ppm
same,Leeching in ppm,"Exhaust + pad + Wash, exhaust 1.0% o.w.f. each in mixture, 10 gm/liter pad",856 ppm
same,Leeching in ppm,"Exhaust + pad, exhaust 0.1% o.w.f. each in mixture, 1 gm/liter pad",198 ppm
same,Leeching in ppm,"Exhaust + pad, exhaust 0.1% o.w.f. each in mixture, 5 gm/liter pad",275 ppm
same,Leeching in ppm,"Exhaust + pad, exhaust 0.1% o.w.f. each in mixture, 10 gm/liter pad",374 ppm
same,Leeching in ppm,"Exhaust + pad, exhaust 0.25% o.w.f. each in mixture, 1 gm/liter pad",315 ppm
same,Leeching in ppm,"Exhaust + pad, exhaust 0.25% o.w.f. each in mixture, 5 gm/liter pad",353 ppm
same,Leeching in ppm,"Exhaust + pad, exhaust 0.25% o.w.f. each in mixture, 10 gm/liter pad",356 ppm
same,Leeching in ppm,"Exhaust + pad, exhaust 0.5 (% o.w.f) each in mixture, 1 gm/liter pad",347 ppm
same,Leeching in ppm,"Exhaust + pad, exhaust 0.5 (% o.w.f) each in mixture, 5 gm/liter pad",462 ppm
same,Leeching in ppm,"Exhaust + pad, exhaust 0.5 (% o.w.f) each in mixture, 10 gm/liter pad",823 ppm
same,Leeching in ppm,"Exhaust + pad, exhaust 1.0% o.w.f. each in mixture, 1 gm/liter pad",584 ppm
same,Leeching in ppm,"Exhaust + pad, exhaust 1.0% o.w.f. each in mixture, 5 gm/liter pad",782 ppm
same,Leeching in ppm,"Exhaust + pad, exhaust 1.0% o.w.f. each in mixture, 10 gm/liter pad",1243 ppm
same,Leeching in ppm,"Exhaust +Wash + pad, exhaust 0.1% o.w.f. each in mixture, 1 gm/liter pad",87 ppm
same,Leeching in ppm,"Exhaust +Wash + pad, exhaust 0.1% o.w.f. each in mixture, 5 gm/liter pad",158 ppm
same,Leeching in ppm,"Exhaust +Wash + pad, exhaust 0.1% o.w.f. each in mixture, 10 gm/liter pad",231 ppm
same,Leeching in ppm,"Exhaust +Wash + pad, exhaust 0.25% o.w.f. each in mixture, 1 gm/liter pad",186 ppm
same,Leeching in ppm,"Exhaust +Wash + pad, exhaust 0.25% o.w.f. each in mixture, 5 gm/liter pad",214 ppm
same,Leeching in ppm,"Exhaust +Wash + pad, exhaust 0.25% o.w.f. each in mixture, 10 gm/liter pad",327 ppm
same,Leeching in ppm,"Exhaust +Wash + pad, exhaust 0.5 (% o.w.f) each in mixture, 1 gm/liter pad",375 ppm
same,Leeching in ppm,"Exhaust +Wash + pad, exhaust 0.5 (% o.w.f) each in mixture, 5 gm/liter pad",432 ppm
same,Leeching in ppm,"Exhaust +Wash + pad, exhaust 0.5 (% o.w.f) each in mixture, 10 gm/liter pad",564 ppm
same,Leeching in ppm,"Exhaust +Wash + pad, exhaust 1.0% o.w.f. each in mixture, 1 gm/liter pad",495 ppm
same,Leeching in ppm,"Exhaust +Wash + pad, exhaust 1.0% o.w.f. each in mixture, 5 gm/liter pad",534 ppm
same,Leeching in ppm,"Exhaust +Wash + pad, exhaust 1.0% o.w.f. each in mixture, 10 gm/liter pad",645 ppm
same,Leaching of active ingredients (in ppm),"exhaust 60° C., solution dosage 1% o.w.f, process time 60 min",23 ppm
same,Leaching of active ingredients (in ppm),"exhaust 60° C., solution dosage 1% o.w.f, process time 90 min",14 ppm
same,Leaching of active ingredients (in ppm),"exhaust 60° C., solution dosage 1% o.w.f, process time 120 min",14 ppm
same,Leaching of active ingredients (in ppm),"exhaust 60° C., solution dosage 1% o.w.f, process time 180 min",12 ppm
same,Leaching of active ingredients (in ppm),"exhaust 60° C., solution dosage 1% o.w.f, process time 240 min",14 ppm
same,Leaching of active ingredients,mixture 0.2% o.w.f. each,0.2 ppm
same,Leaching of active ingredients,mixture 0.5% o.w.f. each,0.3 ppm
same,Leaching of active ingredients,mixture 1% o.w.f. each,0.7 ppm
same,Leaching of active ingredients (in ppm),"exhaust 80° C., 1% o.w.f, 60 min, curing 170° C., curing dwell time 0.5 min",29 ppm
same,Leaching of active ingredients (in ppm),"exhaust 80° C., 1% o.w.f, 60 min, curing 170° C., curing dwell time 1.0 min",25 ppm
same,Leaching of active ingredients (in ppm),"exhaust 80° C., 1% o.w.f, 60 min, curing 170° C., curing dwell time 1.5 min",22 ppm
same,Leaching of active ingredients (in ppm),"exhaust 80° C., 1% o.w.f, 60 min, curing 170° C., curing dwell time 2.0 min",13 ppm
same,Leaching of active ingredients (in ppm),"exhaust 80° C., 1% o.w.f, 60 min, curing 170° C., curing dwell time 2.5 min",17 ppm
same,Leaching of active ingredients (in ppm),"exhaust 80° C., 1% o.w.f, 60 min, curing 170° C., curing dwell time 3.0 min",17 ppm
same,Leaching of active ingredients (in ppm),"exhaust 80° C., 1% o.w.f, 60 min, curing 180° C., curing dwell time 0.5 min",23 ppm
same,Leaching of active ingredients (in ppm),"exhaust 80° C., 1% o.w.f, 60 min, curing 180° C., curing dwell time 1.0 min",13 ppm
same,Leaching of active ingredients (in ppm),"exhaust 80° C., 1% o.w.f, 60 min, curing 180° C., curing dwell time 1.5 min",14 ppm
same,Leaching of active ingredients (in ppm),"exhaust 80° C., 1% o.w.f, 60 min, curing 180° C., curing dwell time 2.0 min",2 ppm
same,Leaching of active ingredients (in ppm),"exhaust 80° C., 1% o.w.f, 60 min, curing 180° C., curing dwell time 2.5 min",12 ppm
same,Leaching of active ingredients (in ppm),"exhaust 80° C., 1% o.w.f, 60 min, curing 180° C., curing dwell time 3.0 min",12 ppm
same,Leaching of active ingredients (in ppm),"exhaust 80° C., 1% o.w.f, 60 min, curing dwell time at 190° C. (title): 0.5 min",19 ppm
same,Leaching of active ingredients (in ppm),"exhaust 80° C., 1% o.w.f, 60 min, curing dwell time at 190° C. (title): 1.0 min",12 ppm
same,Leaching of active ingredients (in ppm),"exhaust 80° C., 1% o.w.f, 60 min, curing dwell time at 190° C. (title): 1.5 min",11 ppm
same,Leaching of active ingredients (in ppm),"exhaust 80° C., 1% o.w.f, 60 min, curing dwell time at 190° C. (title): 2.0 min",11 ppm
same,Leaching of active ingredients (in ppm),"exhaust 80° C., 1% o.w.f, 60 min, curing dwell time at 190° C. (title): 2.5 min",25 ppm
same,Leaching of active ingredients (in ppm),"exhaust 80° C., 1% o.w.f, 60 min, curing dwell time at 190° C. (title): 3.0 min",34 ppm
